This is an account of results in PMC3606385 (PLoS ONE, 2013).

Usually IC50 stands for the concentration that gives 50% inhibition.

The subject of assay [1] is rats. The settings on record: cited from earlier work.
Assay [2] deals with T1, human liver 11β-HSD1 (Homo sapiens, UniProt P28845).
T1 construct: tissue Gentest (Woburn, MA); host or cells: human liver microsomes
The assay can be described thus: Mode of inhibition, human liver 11β-HSD1. It is filed as biochemical. The conditions noted are these: data not shown. Here is the method: The rat testis and liver or human liver microsomes were used for 11β-HSD1 assay. 11β-HSD1 activity was performed in the microsome according to a previously described method. In brief, the assay tubes contained 25 nM substrate 11DHC (for rat) or cortisone (for human), spiked with 30,000 cpm their respective ^3H-11keto-steroid, 0.2 mM NADPH and 5 mM glucose-6-phosphaare in the PBS buffer. 2 µg microsomes were added to each tube to initiate the reaction and the reaction mixture was incubated for up to 2 hrs, during which the reaction is within the linear range. The rest procedure was similar to 11β-HSD1 assay in intact cells.
(§1) The IC50 was determined by adding different concentrations of each compound in the 11β-HSD1 or 11β-HSD2 reaction as described. The mode of inhibition was assayed by adding various concentrations of steroid substrates in the presence of an inhibitor as described.
Enzyme data were subjected to nonlinear analysis by GraphPad (Version 5, GraphPad Software Inc., San Diego, CA) for IC50. Lineweaver-Burk plot was used for the mode of inhibition. Data were subjected to analysis by one-way ANOVA followed by Tukey's multiple comparisons testing to identify significant differences between groups when three were calculated. Differences were regarded as significant at P<0.05.

For assay [3], the target named is T2, Rat 11β-HSD1 (Rattus norvegicus, UniProt P16232).
T2 construct: endogenous in cells; host or cells: primary adult Sprague-Dawley rat Leydig cells
Briefly: 11β-HSD1 assay in intact rat Leydig cells. It is filed as cell-based. On the procedure:
Rat Leydig cells contain the highest 11β-HSD1 activity in all cell types of rat tissues, and were used for rat 11β-HSD1 enzyme sources. Purified rat Leydig cells were obtained from 90-day-old Sprague-Dawley rats by collagenase digestion of the testes followed by Percoll density centrifugation of the cell suspension, according to the previously described method. […] The purity of cell fractions was evaluated by histochemical staining for 3β-hydroxysteroid dehydrogenase activity with […] etiocholanolone as the steroid substrate.
(§2) 11β-HSD1 reductase activity was performed in intact cells using endogenous cofactor NADPH as described previously. […] 25×10^3 cells were added to each tube to initiate the reaction and the reaction mixture was incubated for up to 2 hrs, during which the reaction is within the linear range. At the end of reaction, the reaction was stopped by adding 2 ml ice-cold ether. The steroids were extracted, and the organic layer was dried under nitrogen. The steroids were separated chromatographically on thin layer plates in chloroform and methanol (90∶10, v/v), and the radioactivity was measured using a scanning radiometer (System AR2000, Bioscan Inc., Washington, DC) as described previously. The percentage conversion of 11DHC to CORT or cortisone to cortisol was calculated by dividing the radioactive counts identified as 11-OH-steroids by the total counts.
as §1

The target of assay [4] is T2, Rat 11β-HSD1. The assay can be described thus: 11β-HSD1 assay in adult rat testis microsomes. The assay is classed as biochemical. Here is the method: Rats were euthanized by CO2, and livers, testes and kidneys were collected. Rat liver, testis and kidney microsomes were prepared as described previously. In brief, rat liver and kidney were homogenized in […] PBS buffer containing 0.25 M sucrose, and nuclei and large cell debris were removed by centrifugation at 1500× g for 10 min. The post-nuclear supernatants were centrifuged twice at 105,000×g, the resultant microsomal pellets were resuspended. Protein contents were measured by Bio-Rad Dye Reagent Concentrate (Cat.#500-0006). Microsomes were used for measurement of 11β-HSD1 and 11β-HSD2 activities.
The rat testis and liver or human liver microsomes were used for 11β-HSD1 assay. 11β-HSD1 activity was performed in the microsome according to a previously described method. […] 2 µg microsomes were added to each tube to initiate the reaction and the reaction mixture was incubated for up to 2 hrs, during which the reaction is within the linear range. The rest procedure was similar to 11β-HSD1 assay in intact cells.
as §1

Assay [5] relates to diabetic rats. The settings on record: normal or high fat diet; cited from earlier work.
For assay [6], the system named is db/db mice. The conditions noted are these: cited from earlier work.
The target in assay [7] is T3, Human 11β-HSD1 (Homo sapiens, UniProt P28845).
T3 construct: expressed in transfected cells; host or cells: CHOP cells (transient, FuGENE)
Briefly: 11β-HSD1 assay in intact CHOP cells transfected with human HSD11B1. It is filed as cell-based. On the procedure: An expression plasmid was constructed to express human 11β-HSD1 (HSD11B1) cDNA in pcDNA I expression vector from its original human HSD11B1 vector (pBluescriptSK+).[15]. The Escherichia coli transformants carrying an insert were selected by colony hybridization, and a clone with the insert in the correct orientation relative to the vector T7 promoter was identified by restriction mapping. All transfections were carried out on 80% confluent cultures in 12-well plates. Aliquots of 1 µg HSD11B1 pcDNA I were transfected into mammalian CHOP cells with the FuGENE Transfection Reagent (Roche) according to manufacturer's protocol. Cells were allowed to grow for 24 hours in media containing 10% fetal bovine serum. Then media were removed and cells were harvested for 11β-HSD1 activity assay.
as §2, §1

Several values for one entry are separate records, joined by “and”; a condition that tells them apart may be missing. Identical values can stand only once. Like-named read-outs stand apart in the source and are kept apart here.

T3 sequence (P28845 whole entry): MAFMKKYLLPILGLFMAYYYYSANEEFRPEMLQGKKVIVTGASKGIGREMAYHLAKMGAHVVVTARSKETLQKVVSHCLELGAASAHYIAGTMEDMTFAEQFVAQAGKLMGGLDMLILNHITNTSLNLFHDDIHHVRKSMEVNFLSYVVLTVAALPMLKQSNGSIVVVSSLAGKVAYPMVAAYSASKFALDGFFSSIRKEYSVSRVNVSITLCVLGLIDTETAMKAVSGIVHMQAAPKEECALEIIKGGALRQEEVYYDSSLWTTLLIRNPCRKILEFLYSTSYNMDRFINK
T2 sequence (P16232 whole entry): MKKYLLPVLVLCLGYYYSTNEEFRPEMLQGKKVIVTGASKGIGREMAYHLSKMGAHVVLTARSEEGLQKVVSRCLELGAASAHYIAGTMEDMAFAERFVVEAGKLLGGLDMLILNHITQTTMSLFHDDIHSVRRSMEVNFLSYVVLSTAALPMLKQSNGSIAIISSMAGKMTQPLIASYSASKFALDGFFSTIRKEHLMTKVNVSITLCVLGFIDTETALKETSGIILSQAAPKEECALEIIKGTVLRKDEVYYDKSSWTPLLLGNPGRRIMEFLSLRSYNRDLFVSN
T1 sequence (P28845 whole entry): as the sequence (P28845 whole entry) above

On to `COc1cc(/C=C/C(=O)CC(=O)/C=C/c2ccc(O)c(OC)c2)ccc1O` [1 (Curcumin), Curcumin], for which the “Effect on serum and liver cholesterol levels” value in assay [1] was “lowered”. Besides, in assay [2], the “Mode of inhibition of human 11β-HSD1” value is on record as “competitive inhibitor”. Besides, the IC50 is 5790 nM and 2290 nM and 2000 to 6000 nM in assay [3] (intact adult rat Leydig cells, read-out: IC50 rat 11β-HSD1 in intact cells); 5790 nM in assay [3] (intact rat Leydig cells, read-out: Rat 11β-HSD1 IC50 (nM) in Leydig cells); 4.18 ± 0.24 µM in assay [4]; 2300 nM in assay [7] (CHOP cells transfected with human HSD11B1, read-out: Human 11β-HSD1 IC50 (nM) in CHOP cells); 5780 ± 2220 nM in assay [7] (IC50 human 11β-HSD1 in intact cells, intact CHOP cells transfected with human HSD11B1); 2290 nM and 2000 to 6000 nM and 2300 nM in assay [7] (intact CHOP cells transfected with human HSD11B1, read-out: IC50 human 11β-HSD1 in intact cells). Further, in assay [5], the “Effect on serum Tg” value is recorded as “remarkably reduced”. In addition, the “Effect on serum cholesterol” value in assay [5] is reported as “remarkably reduced”. Besides, the “Effect on body weights” value in assay [6] is on record as “lowered”. In addition, the “Effect on insulin resistance” value in assay [6] is given as “corrected”. The “Effect on serum glucose levels” value in assay [6] was “significantly reduced”.
